For one test, the target named is T1, uterine OT receptors (Rattus norvegicus, UniProt P70536).
T1 construct: using a crude membrane preparation of uteri; from tissue; host or cells: rat uterus, crude membrane preparation (DES-treated rats)
T1 sequence (P70536 1-388): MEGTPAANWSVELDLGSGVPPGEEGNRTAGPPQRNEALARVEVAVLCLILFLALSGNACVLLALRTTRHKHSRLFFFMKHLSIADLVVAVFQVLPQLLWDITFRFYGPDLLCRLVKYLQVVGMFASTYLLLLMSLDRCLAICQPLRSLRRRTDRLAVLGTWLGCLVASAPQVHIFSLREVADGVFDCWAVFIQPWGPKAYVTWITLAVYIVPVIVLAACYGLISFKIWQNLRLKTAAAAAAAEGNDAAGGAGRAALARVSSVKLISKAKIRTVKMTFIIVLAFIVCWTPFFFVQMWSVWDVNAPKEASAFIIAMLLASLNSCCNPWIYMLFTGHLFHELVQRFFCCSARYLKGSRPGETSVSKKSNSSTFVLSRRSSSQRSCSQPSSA
Kind of test: [3H]oxytocin (OT) radioligand binding, uterine membranes. The conditions noted are these: for inhibition at 10 µM: read-out: % Inhibition rat OT.

In another test the target is T2, AVP-V1 sites (Rattus norvegicus, UniProt P30560).
T2 construct: crude membrane preparation of male rat liver; from tissue; host or cells: male rat liver, crude membrane preparation
T2 sequence (P30560 whole entry): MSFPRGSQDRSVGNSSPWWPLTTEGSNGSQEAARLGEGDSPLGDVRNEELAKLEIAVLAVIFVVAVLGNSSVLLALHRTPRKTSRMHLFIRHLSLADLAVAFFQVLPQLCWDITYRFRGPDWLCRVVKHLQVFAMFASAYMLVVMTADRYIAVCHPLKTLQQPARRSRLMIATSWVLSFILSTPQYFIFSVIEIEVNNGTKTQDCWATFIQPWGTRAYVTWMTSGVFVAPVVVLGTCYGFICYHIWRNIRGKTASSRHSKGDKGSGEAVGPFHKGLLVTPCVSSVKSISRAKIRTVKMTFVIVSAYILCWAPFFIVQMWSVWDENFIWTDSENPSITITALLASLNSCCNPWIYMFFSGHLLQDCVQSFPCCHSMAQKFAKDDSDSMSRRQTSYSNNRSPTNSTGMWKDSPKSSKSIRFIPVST
Kind of test: [3H]vasopressin (AVP) radioligand binding, liver membranes (AVP-V1 sites). Particulars: for inhibition at 3 µM: read-out: % Inhibition rat V1.

In another test the target is AVP-V2 sites (Rattus norvegicus, UniProt Q00788). The test can be described thus: [3H]vasopressin (AVP) radioligand binding, kidney medulla membranes (AVP-V2 sites). The conditions noted are these: for inhibition at 3 µM: read-out: % Inhibition rat V2.
Chain of AVP-V2 sites (Q00788 whole entry): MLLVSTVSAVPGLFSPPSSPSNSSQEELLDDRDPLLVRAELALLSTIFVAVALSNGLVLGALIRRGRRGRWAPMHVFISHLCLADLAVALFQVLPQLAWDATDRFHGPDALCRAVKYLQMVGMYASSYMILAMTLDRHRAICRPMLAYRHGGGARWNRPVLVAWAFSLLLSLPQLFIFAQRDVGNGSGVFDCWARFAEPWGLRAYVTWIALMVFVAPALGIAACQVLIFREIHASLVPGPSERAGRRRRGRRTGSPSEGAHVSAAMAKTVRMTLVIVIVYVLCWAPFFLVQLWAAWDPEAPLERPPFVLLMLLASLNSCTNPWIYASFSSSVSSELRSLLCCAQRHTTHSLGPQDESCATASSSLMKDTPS

Read-outs that look alike come from different tables or passages of the source. Some results are limits rather than exact numbers.

Usually IC50 stands for the concentration that gives 50% inhibition. High values mean lower potency, low ones higher potency. In general, inhibition refers to the relative decrease from the control value, in per cent. At uterine OT receptors, `O=C(c1ccc(-c2ccccc2)cc1)N1CCC(N2C(=O)CCc3ccccc32)CC1` [C6H5] had an IC50 of 3.5 µM. The values for the inhibition at 3 µM on AVP-V1 sites and on AVP-V2 sites were 65% and 2%, respectively.

Turning to `O=C(c1ccc(C(F)(F)F)cc1)N1CCC(N2C(=O)CCc3ccccc32)CC1` [CF3], at uterine OT receptors, the inhibition at 10 µM is 69%. The IC50 is 0.8 µM at AVP-V1 sites and 60 µM at AVP-V2 sites.

Take `O=C(c1cccc2ccccc12)N1CCC(N2C(=O)CCc3ccccc32)CC1` [CO, 1-naphthyl]: the inhibition at 10 µM at uterine OT receptors (@ 10 uM) turned out to be 69%. The results for the inhibition at 3 µM on AVP-V1 sites (@ 3 uM) and at AVP-V2 sites (@ 3 uM) were 17% and 5%, respectively.

Turning to `O=C(c1ccc2ccccc2c1)N1CCC(N2C(=O)CCc3ccccc32)CC1` [CO, 2-naphthyl], the inhibition at 10 µM at uterine OT receptors came to 75%. Moreover, the inhibition at 3 µM at AVP-V1 sites was 75%; on AVP-V2 sites, 7%.

Consider `O=C(c1ccc2[nH]ccc2c1)N1CCC(N2C(=O)CCc3ccccc32)CC1` [CO, 5-indolyl], for which the IC50 on uterine OT receptors amounted to 1.7 µM; on AVP-V1 sites, 0.24 µM; on AVP-V2 sites it was 56 µM.

`Nc1ccc(CC(=O)N2CCC(N3C(=O)CCc4ccccc43)CC2)cc1` [CO, p-CH2C6H4NH2] returned an inhibition at 1 µM at uterine OT receptors (@ 1 uM) of 19%. Moreover, the inhibition at 3 µM at AVP-V1 sites (@ 3 uM) came out at 27%; on AVP-V2 sites (@ 3 uM), 1%.

Turning to `CC(=O)Nc1ccc(CC(=O)N2CCC(N3C(=O)CCc4ccccc43)CC2)cc1` [CO, p-CH2C6H4NHAc], the IC50 was 2.3 µM at uterine OT receptors, 0.95 µM at AVP-V1 sites and more than 100 µM at AVP-V2 sites.

As to `COc1ccc(CC(=O)N2CCC(N3C(=O)CCc4ccccc43)CC2)cc1` [CO, p-CH2C6H4OCH3], the IC50 was 2.4 µM at uterine OT receptors, 6 µM at AVP-V1 sites and more than 100 µM at AVP-V2 sites.

`O=C(c1ccc(OCCCN2C(=O)c3ccccc3C2=O)cc1)N1CCC(N2C(=O)CCc3ccccc32)CC1` [Example 2] came in with an IC50 on uterine OT receptors of 1.1 µM.

Consider `COc1ccc(C(=O)N2CCC(N3C(=O)CCc4ccccc43)CC2)c(OC)c1` [Example 5], for which the IC50 at uterine OT receptors came out at 0.56 µM; on AVP-V1 sites, 0.039 µM.

In turn, `O=C(c1ccc(OCCCN2C(=O)c3ccccc3C2=O)cc1)N1CCC(N2C(=O)CCc3ccccc32)CC1` [O(CH2)3NPth (drawing 528)] showed an IC50 on AVP-V2 sites not below 100 µM.

As for `CC1(C)[C@@H]2CC[C@@]1(CS(=O)(=O)N1CCC(N3C(=O)CCc4ccccc43)CC1)C(=O)C2` [SO2, (+)-camphor-10-yl], the 50% inhibitory concentration (IC50) worked out at 1.9 µM at uterine OT receptors, 8 µM at AVP-V1 sites and 72 µM at AVP-V2 sites.

As for `COc1ccc(S(=O)(=O)N2CCC(N3C(=O)CCc4ccccc43)CC2)cc1` [SO2, p-C6H4OCH3], the inhibition at 10 µM on uterine OT receptors (@ 10 uM) was 36%. Besides, the inhibition at 3 µM on AVP-V1 sites (@ 3 uM) is 15%; at AVP-V2 sites (@ 3 uM), 12%.

Take `COc1cccc(C(=O)N2CCC(N3C(=O)CCc4ccccc43)CC2)c1` [m-OCH3]: the results for the IC50 at uterine OT receptors, at AVP-V1 sites and on AVP-V2 sites were 2.7 µM, 2.1 µM and more than 100 µM, respectively.

For `Cc1ccc(C(=O)N2CCC(N3C(=O)CCc4ccccc43)CC2)c(C)c1` [o-CH3, p-CH3], the inhibition at 10 µM on uterine OT receptors (@ 10 uM) is 79%. The inhibition at 3 µM was 48% on AVP-V1 sites (@ 3 uM) and 55% at AVP-V2 sites (@ 3 uM).

As to `O=C(c1ccc(Cl)cc1Cl)N1CCC(N2C(=O)CCc3ccccc32)CC1` [o-Cl, p-Cl], at uterine OT receptors (@ 10 uM), the inhibition at 10 µM was 7%. For the same compound, the inhibition at 3 µM at AVP-V1 sites (@ 3 uM) is 34%; on AVP-V2 sites (@ 3 uM), 1%.

On uterine OT receptors, `O=C(c1ccc([N+](=O)[O-])cc1Cl)N1CCC(N2C(=O)CCc3ccccc32)CC1` [o-Cl, p-NO2] registered an IC50 of 15 µM. Also, the inhibition at 3 µM at AVP-V1 sites was found to be 34%; at AVP-V2 sites, 6%.

`COc1ccc(C(=O)N2CCC(N3C(=O)CCc4ccccc43)CC2)c(OC)c1` [o-OCH3, p-OCH3 (drawing 527)]: the IC50 on AVP-V2 sites came out at 28 µM.

On to `COc1ccccc1C(=O)N1CCC(N2C(=O)CCc3ccccc32)CC1` [o-OCH3], for which the concentration for half-maximal inhibition (IC50) on uterine OT receptors is 1.1 µM; at AVP-V1 sites, 0.38 µM; at AVP-V2 sites, 66 µM.

In the case of `CC(C)(C)c1ccc(C(=O)N2CCC(N3C(=O)CCc4ccccc43)CC2)cc1` [tert-C4H9], the inhibition at 10 µM on uterine OT receptors is 77%. The IC50 was 0.8 µM on AVP-V1 sites and approximately 70 µM at AVP-V2 sites.

For the origin of these results see patent US5356904A, “Carbostyril oxytocin receptor antagonists” (Merck & Co., Inc., priority 1992, dated 1994).
